Laboratory results as given in patent US8586569B2, “Betulonic and betulinic acid derivatives” (priority 2006, dated 2013).

Tested on: lymphocytes of patients suffering from chronic lymphoid leukaemia (human leukaemia cells)
Experiment: Sensibility of chronic lymphoid leukaemia lymphocytes in culture, 3H-thymidine incorporation (CPM) with or without PHA stimulation
Assay type: cell-based
Method: The sensibility of human leukaemia cells to acetoxymethyl 3β-(methoxypolyethylene glycol acetoxy)-lup-20(29)-en-28-oate 4c-β at different concentrations (from 0.04 mM up to 1 mM) was tested in vitro. The lymphocytes of three patients (4266866, 4266860 and 4262311) suffering from chronic lymphoid leukaemia were used in cell cultures.
On day 0: A multi-well plate was prepared per patient, each comprising 10^6 cells/well in a total volume of 1 ml. Cells, RPMI (cell growth medium) and test compound 4c-β were added in accordance with table 2 (all experiments were duplicated). The test compound dissolved in RPMI was added in the following amounts: 10 μl≡0.04 mM, 50 μl≡0.2 mM, 100 μl≡0.4 mM, 150 μl≡0.6 mM, 200 μl≡0.8 mM, and 250 μl≡1 mM.
On day 2: • 500 μl was taken from each well of plate 1 and put into a well of plate 2. • Plate 2: cells were tritiated with ^3H-thymidine for 4 hours; after the 4 hours incubation in the presence of radioactivity, plate 2 was harvested and radioactivity was counted. • Plate 1: 50 μl PHA was added to the 500 μl of each well of plate 1.
On day 5: • Plate 1: cells and PHA were tritiated with ^3H-thymidine for 4 hours; after the 4 hours incubation in the presence of radioactivity, plate 1 was harvested and radioactivity was counted.
PHA (a lectin named phytoagglutine, which is a mitogen activating living cells) was added to the cells in culture. PHA acts as a stimulating agent. All human lymphocytes have receptors for this type of lectin and all human lymphocytes undergo lymphoblastic transformation when stimulated by PHA. By adding PHA to the cells in culture, it was possible to measure whether the cells were still alive.
CPM stands for counts per minute and measures the disintegration of the tritiated ^3H-thymidine. Thus, CPM reflects the radioactivity of the cells' DNA having incorporated the tritiated ^3H-thymidine after mitosis. […]
On day 0: A multi-well plate was prepared, comprising 10^6 cells/well in a total volume of 1.5 ml. […] The test compound dissolved in RPMI was added in the following amounts: 125 μl≡0.5 mM and 250 μl≡1 mM. […]
The sensibility of human leukaemia cells to acetoxymethyl 3β-(methoxypolyethylene glycol acetoxy)-lupan-28-oate 8c-β at different concentrations (0.5 mM and 1 mM) was tested in vitro. The lymphocytes of one patient (4316182) suffering from chronic lymphoid leukaemia were used in cell cultures. […]
On day 2: • Plate 1: cells were tritiated with ^3H-thymidine for 4 hours; after the 4 hours incubation in the presence of radioactivity, plate 1 was harvested and radioactivity was counted. • Plate 2: cells were tritiated with ^3H-thymidine for 4 hours; after the 4 hours incubation in the presence of radioactivity, plate 2 was harvested and radioactivity was counted.

[1] = 0.5 mM and 1 mM, one patient, FIG. 4

| Substance | killing of cells by test compound [1] | reactivation of cells by addition of PHA after contact with test compound [1] | activation of cells by PHA after contact with test compound (plate 1, PHA added day 2, counted day 5, 0.04 mM up to 1 mM, three patients, FIGS. 2a-c) | time within which cells contacted with test compound were killed (CPM after 3H-thymidine) (plate 2, 0.04 mM up to 1 mM, three patients, FIGS. 2a-c) [h] |
| --- | --- | --- | --- | --- |
| Acetoxymethyl 3β-(methoxypolyethylene glycol acetoxy)-lupan-28-oate [compound 8c-β] | killed the cells | unable to be reactivated by the addition of PHA |  |  |
| Acetoxymethyl 3β-(methoxypolyethylene glycol acetoxy)-lup-20(29)-en-28-oate [compound 4c-β] |  |  | could no longer be activated by PHA | ≤ 48 |
